Like-named read-outs stand apart in the source and are kept apart here.
System: intracellular HBV DNA
Experiment: Real-time PCR for intracellular HBV DNA in HepAD38 cells
Assay type: cell-based
Details: 65 hours treatment
Protocol: HepAD38 cells were cultured in DMEM medium (Welgene) supplemented with 200 unit/mL penicillin, 200 μg/mL streptomycin, and 10% FBS. During maintenance and passage, the cells were cultured together with 0.4 μg/mL tetracycline. Two days before the treatment with compounds for inducing HBV replication was started, the medium was replaced with a tetracycline-free complete growth medium. […]
HepAD38 cells were treated with a compound for 65 hours and then recovered, and intracellular HBV DNA was extracted therefrom according to the protocol in the DNeasy Blood & Tissue Kit (Qiagen). The primers and probes used to quantify HBV DNA were 5′-[…]-3′, 5′-[…]-3′, and 5′-/56-FAM/TGT CCT GGT/ZEN/TAT CGC TGG ATG TGT CT/3IABkFQ/-3′. The HBV DNA was amplified by real-time PCR assay using LightCycler 480 (Roche) (J. Virol., 2018, 92(16):e00339-18). All of the processes were confirmed in duplicate.

[1] = Hepatitis B virus, HePAD38, 65 h

Compound	IC50 [1]	other results
COc1ncc(N(Cc2cc(C(F)(F)F)[nH]n2)C(=O)NC23CC(C)(C2)C3)cn1 [Example 217, 1-(2-methoxypyrimidin-5-yl)-3-(3-methylbicyclo[1.1.1]pentan-1-yl)-1-((5-(trifluoromethyl)-1H-pyrazol-3-yl)methyl)urea]	> 1100 nM	
COc1ncc(N(Cc2cc(C#N)[nH]n2)C(=O)Nc2ccc(F)c(C#N)c2)cn1 [Example 157, 1-((5-cyano-1H-pyrazol-3-yl)methyl)-3-(3-cyano-4-fluorophenyl)-1-(2-methoxypyrimidin-5-yl)urea]	66 nM	
CCOCCc1c(CN(C(=O)Nc2ccc(F)c(Cl)c2)c2ccc(OC)nc2)n[nH]c1C(F)(F)F [Example 85, 3-(3-chloro-4-fluorophenyl)-1-((4-(2-ethoxyethyl)-5-(trifluoromethyl)-1H-pyrazol-3-yl)methyl)-1-(6-methoxypyridin-3-yl)urea]	230 nM	
3-(6-fluoropyridin-3-yl)-1-(2-methoxypyrimidin-5-yl)-1-((5-(trifluoromethyl)-1H-pyrazol-3-yl)methyl)urea [Example 184]		IC50 (read-out: IC50): 250 nM
COc1ncc(N(Cc2cc(C#N)[nH]n2)C(=O)Nc2ccc(F)c(Cl)c2)cn1 [Example 104, 3-(3-chloro-4-fluorophenyl)-1-((5-cyano-1H-pyrazol-3-yl)methyl)-1-(2-methoxypyrimidin-5-yl)urea]	27 nM	
COc1ncc(N(Cc2cc(C(F)F)[nH]n2)C(=O)Nc2ccc(F)c(C(F)F)c2)cn1 [Example 190, 1-((5-(difluoromethyl)-1H-pyrazol-3-yl)methyl)-3-(3-(difluoromethyl)-4-fluorophenyl)-1-(2-methoxypyrimidin-5-yl)urea]	20 nM	
CC(=O)c1cc(N(Cc2n[nH]c3c2CCOC3)C(=O)Nc2ccc(F)c(Cl)c2)ccn1 [Example 22, 1-(2-acetylpyridin-4-yl)-3-(3-chloro-4-fluorophenyl)-1-((1,4,5,7-tetrahydropyrano[3,4-c]pyrazol-3-yl)methyl)urea]	> 1100 nM	
O=C(Nc1ccc(F)c(Cl)c1)N(Cc1cc(C(F)(F)F)[nH]n1)C12CC(C1)C2 [Example 137, 1-(bicyclo[1.1.1]pentan-1-yl)-3-(3-chloro-4-fluorophenyl)-1-((5-(trifluoromethyl)-1H-pyrazol-3-yl)methyl)urea]	370 nM	
COc1ncc(N(Cc2cc(C(F)F)[nH]n2)C(=O)Nc2ccc(Cl)nc2Cl)cn1 [Example 166, 3-(2,6-dichloropyridin-3-yl)-1-((5-(difluoromethyl)-1H-pyrazol-3-yl)methyl)-1-(2-methoxypyrimidin-5-yl)urea]	> 1100 nM	
COc1ccc(N(Cc2n[nH]c(C(F)F)c2OC)C(=O)Nc2ccc(F)c(Cl)c2)cn1 [Example 100, 3-(3-chloro-4-fluorophenyl)-1-((5-(difluoromethyl)-4-methoxy-1H-pyrazol-3-yl)methyl)-1-(6-methoxypyridin-3-yl)urea]	36 nM	
COc1ncc(N(Cc2cc(C(F)(F)F)[nH]n2)C(=O)Nc2ccc(F)c(C(F)F)n2)cn1 [Example 204, 3-(6-(difluoromethyl)-5-fluoropyridin-2-yl)-1-(2-methoxypyrimidin-5-yl)-1-((5-(trifluoromethyl)-1H-pyrazol-3-yl)methyl)urea]		IC50: 36 nM
COc1ncc(N(Cc2cc(C(F)(F)F)[nH]n2)C(=O)Nc2cccc(C(F)F)n2)cn1 [Example 177, 3-(6-(difluoromethyl)pyridin-2-yl)-1-(2-methoxypyrimidin-5-yl)-1-((5-(trifluoromethyl)-1H-pyrazol-3-yl)methyl)urea]	100 nM	
COc1ccc(N(Cc2n[nH]c(C(F)(F)F)c2CCO)C(=O)Nc2ccc(F)c(Cl)c2)cn1 [Example 86, 3-(3-chloro-4-fluorophenyl)-1-((4-(2-hydroxyethyl)-5-(trifluoromethyl)-1H-pyrazol-3-yl)methyl)-1-(6-methoxypyridin-3-yl)urea]	16 nM	
COc1cc(N(Cc2cc(C(F)(F)F)[nH]n2)C(=O)Nc2ccc(F)c(C(F)F)c2)cnn1 [Example 203, 3-(3-(difluoromethyl)-4-fluorophenyl)-1-(6-methoxypyridazin-4-yl)-1-((5-(trifluoromethyl)-1H-pyrazol-3-yl)methyl)urea]	13 nM	
COc1ncc(N(Cc2cc(C(F)(F)F)[nH]n2)C(=O)Nc2ccnc(C(F)F)c2)cn1 [Example 175, 3-(2-(difluoromethyl)pyridin-4-yl)-1-(2-methoxypyrimidin-5-yl)-1-((5-(trifluoromethyl)-1H-pyrazol-3-yl)methyl)urea]	41 nM	
COc1ncc(N(Cc2cc(C(F)F)[nH]n2)C(=O)Nc2cc(F)c(F)c(C#N)c2)cn1 [Example 150, 3-(3-cyano-4,5-difluorophenyl)-1-((5-(difluoromethyl)-1H-pyrazol-3-yl)methyl)-1-(2-methoxypyrimidin-5-yl)urea]	> 1100 nM	
COc1ncc(N(Cc2cc(C(F)(F)F)[nH]n2)C(=O)Nc2cncnc2)cn1 [Example 2, 1-(2-methoxypyrimidin-5-yl)-3-(pyrimidin-5-yl)-1-((5-(trifluoromethyl)-1H-pyrazol-3-yl)methyl)urea]	> 1100 nM	
COc1ncc(N(Cc2cc(C(F)(F)F)[nH]n2)C(=O)Nc2ccc(C#N)c(C#N)c2)cn1 [Example 167, 3-(3,4-dicyanophenyl)-1-(2-methoxypyrimidin-5-yl)-1-((5-(trifluoromethyl)-1H-pyrazol-3-yl)methyl)urea]	190 nM	
COc1ncc(N(Cc2cc(C(F)(F)F)[nH]n2)C(=O)Nc2cc(C)c(F)c(Cl)c2)cn1 [Example 140, 3-(3-chloro-4-fluoro-5-methylphenyl)-1-(2-methoxypyrimidin-5-yl)-1-((5-(trifluoromethyl)-1H-pyrazol-3-yl)methyl)urea]	37 nM	
COc1ncc(N(Cc2cc(C(F)(F)F)[nH]n2)C(=O)Nc2ccc(F)c(Cl)n2)cn1 [Example 106, 3-(6-chloro-5-fluoropyridin-2-yl)-1-(2-methoxypyrimidin-5-yl)-1-((5-(trifluoromethyl)-1H-pyrazol-3-yl)methyl)urea]	120 nM	
COc1ncc(N(Cc2cc(C(F)(F)F)[nH]n2)C(=O)Nc2nc(Cl)cc(C)c2F)cn1 [Example 141, 3-(6-chloro-3-fluoro-4-methylpyridin-2-yl)-1-(2-methoxypyrimidin-5-yl)-1-((5-(trifluoromethyl)-1H-pyrazol-3-yl)methyl)urea]	420 nM	
COc1ncc(N(Cc2cc(C(F)F)[nH]n2)C(=O)Nc2ccc(F)c(Cl)c2)cn1 [Example 84, 3-(3-chloro-4-fluorophenyl)-1-((5-(difluoromethyl)-1H-pyrazol-3-yl)methyl)-1-(2-methoxypyrimidin-5-yl)urea]	17 nM	
COc1ncc(N(Cc2cc(C(F)F)[nH]n2)C(=O)Nc2ccc(F)c(C(F)F)n2)cn1 [Example 210, 1-((5-(difluoromethyl)-1H-pyrazol-3-yl)methyl)-3-(6-(difluoromethyl)-5-fluoropyridin-2-yl)-1-(2-methoxypyrimidin-5-yl)urea]		IC50: 130 nM
COc1ncc(N(Cc2n[nH]c(C(F)(F)F)c2CC(C)(C)O)C(=O)Nc2ccc(F)c(C(F)F)c2)cn1 [Example 205, 3-(3-(difluoromethyl)-4-fluorophenyl)-1-((4-(2-hydroxy-2-methylpropyl)-5-(trifluoromethyl)-1H-pyrazol-3-yl)methyl)-1-(2-methoxypyrimidin-5-yl)urea]	> 1100 nM	
COc1ncc(N(Cc2cc(C#N)[nH]n2)C(=O)Nc2ccc(F)c(C(F)F)c2)cn1 [Example 209, 1-((5-cyano-1H-pyrazol-3-yl)methyl)-3-(3-(difluoromethyl)-4-fluorophenyl)-1-(2-methoxypyrimidin-5-yl)urea]	16 nM	
COc1ncc(N(Cc2cc(C(F)(F)F)[nH]n2)C(=O)Nc2ccc(Cl)c(C#N)n2)cn1 [Example 8, 3-(5-chloro-6-cyanopyridin-2-yl)-1-(2-methoxypyrimidin-5-yl)-1-((5-(trifluoromethyl)-1H-pyrazol-3-yl)methyl)urea]	> 1100 nM	
COc1ncc(N(Cc2cc(C(F)(F)F)[nH]n2)C(=O)Nc2cnc(SC)nc2)cn1 [Example 218, 1-(2-methoxypyrimidin-5-yl)-3-(2-(methylthio)pyrimidin-5-yl)-1-((5-(trifluoromethyl)-1H-pyrazol-3-yl)methyl)urea]	> 1100 nM	
COc1ncc(N(Cc2cc(C(F)(F)F)[nH]n2)C(=O)Nc2cc(F)c(F)c(Cl)c2)cn1 [Example 11, 3-(3-chloro-4,5-difluorophenyl)-1-(2-methoxypyrimidin-5-yl)-1-((5-(trifluoromethyl)-1H-pyrazol-3-yl)methyl)urea]	10 nM	
COc1ccc(N(Cc2cc(C(F)F)[nH]n2)C(=O)Nc2ccc(F)c(C(F)F)c2)cn1 [Example 191, 1-((5-(difluoromethyl)-1H-pyrazol-3-yl)methyl)-3-(3-(difluoromethyl)-4-fluorophenyl)-1-(6-methoxypyridin-3-yl)urea]	24 nM	
COc1ncc(N(Cc2n[nH]c(C(F)F)c2CC(C)(C)O)C(=O)Nc2ccc(F)c(C(F)F)c2)cn1 [Example 208, 1-((5-(difluoromethyl)-4-(2-hydroxy-2-methylpropyl)-1H-pyrazol-3-yl)methyl)-3-(3-(difluoromethyl)-4-fluorophenyl)-1-(2-methoxypyrimidin-5-yl)urea]	> 1100 nM	

From patent US20250009742A1 (priority 2021, published 2025)
